Measurements reported in patent US11091462B2, “(Hetero)arylamide compound for inhibiting protein kinase activity” (Shenzhen TargetRx, Inc., priority 2017, dated 2021).
Several values for one entry are separate records, joined by “and”; a condition that tells them apart may be missing. Equal entries are not always repeated. Where two headings read alike, the source gives them in different places.

Legend:
[1] = target: T1, Ba/F3 Bcr-Abl^T315I cells (Homo sapiens, UniProt P00519, T315I, cells depend on it); test: Cytotoxicity experiment, Ba/F3 Bcr-Abl T315I cells (CellTiter-Glo); assay type: cell-based; conditions: 3 days, read-out: Ba/F3 Bcr-Abl1^T315I IC50
T1 construct: Ba/F3 Bcr-Abl1^T315I IC50; other: Ba/F3 Bcr-Abl T315I cells, 3 days; fused on or other part: P11274 (Breakpoint cluster region protein)
Procedure: (§1) Example 13: Cytotoxicity Experiment
(§2) The inhibitory effect of the Example compounds on the activity of Ba/F3 parent cell, Ba/F3 Bcr-Abl^T315I cell was examined.
(§3) 1. Preparation of cell plate: Ba/F3 parental cells, Ba/F3 Bcr-Abl^T315I cells were seeded in 96-well plates, and 8 ng/ml IL-3 was added to Ba/F3 parental cells. The cell plates were placed in carbon dioxide culture and incubated overnight.
(§4) 2. Preparation of test compounds: The test compounds were dissolved in DMSO and subjected to a 3.16-fold gradient dilution in triplicate, 9 concentrations were obtained, starting from the concentration of 10 μM.
(§5) 3. Treatment of Cells with compounds: Compounds at various concentrations were transferred to cell plates. The cell plates were incubated in a carbon dioxide incubator for 3 days.
(§6) 4. Detection: CellTiter-Glo4 reagent was added to the cell plates, which were incubated for 30 minutes at room temperature to stabilize the luminescence signal. Readings were performed using a PerkinElmer Envision multi-label analyzer.

Ba/F3 parent cells = test: Cytotoxicity experiment, Ba/F3 parent cells (CellTiter-Glo); assay type: cell-based; conditions: Mus musculus, BaF3, 72 h; Ba/F3 parent cells with 8 ng/ml IL-3, 3 days
Procedure: as §1, §2, §3, §4, §5, §6

[2] = Pharmacokinetic experiment in rats; assay type: in vivo, Sprague-Dawley rats; set-up: Cl—pred: unit not given here; conditions: for AUC(0-t) / Cmax / MRT inf / Vd: male, Sprague-Dawley, rat, plasma; for MRT inf: read-out: MRTINF—pred; for Vd: read-out: Vz—pred; for F: oral 20 mg/kg vs IV 2 mg/kg
Procedure: 9 Male Sprague-Dawley rats, 7-8 weeks old, weighted 210 g, divided into 3 groups with 3 rats in each group, were intravenously (2 mg/kg) or orally (20 mg/kg) given a single dose of compound, and differences in pharmacokinetics of the rats were compared.
Rats were fed with a standard diet and water. Fasting began 16 hours before the test. The drugs were dissolved in PEG400 and dimethyl sulfoxide. Blood was collected from the eyelids at a time point of 0.083 hour, 0.25 hour, 0.5 hour, 1 hour, 2 hours, 4 hours, 6 hours, 8 hours, 12 hours, and 24 hours after administration.
Rats were briefly anesthetized after inhalation of ether, and 300 μL of blood samples were collected from the eyelids to test tubes. There was 30 μL of 1% heparin salt solution in the test tube. The tubes were dried overnight at 60° C. before use. After the blood sample was collected at the last time point, rats were anesthetized with ether and sacrificed.
Immediately after the collection, blood samples were sufficiently mixed by gently inverting the tube at least 5 times, and were placed on ice. Blood samples were centrifuged at 5000 rpm for 5 minutes at 4° C. to separate plasma from red blood cells. 100 μL of the plasma was pipetted into a clean plastic centrifuge tube, marking the name of the compound and collecting time. Plasma was stored at −80° C. prior to analysis. The concentration of the compounds disclosed herein in plasma was determined by LC-MS/MS. Pharmacokinetic parameters were calculated based on drug concentrations in plasma of each animal at different time points.

[3] = tested on: BA/F3 (BCR-ABL^T315I) cells; test: Pharmacodynamic evaluation in BA/F3 (BCR-ABL T315I) subcutaneous tumor model; assay type: in vivo, NOD/SCID mice; conditions: 15 mg/kg twice a day
Procedure: Feeding environment: SPF level.
Each NOD/SCID mouse was subcutaneously inoculated with 5×10^6 BA/F3 (BCR-ABL^T315I) cells in the right dorsal area, wherein the cells were resuspended in PBS (0.1 ml/mouse), to establish a subcutaneous tumor model. […] The efficacy was evaluated according to the relative tumor growth inhibition rate (TGI), and the safety evaluation was performed according to the body weight changes and deaths of the animals.
The experimental protocols for animal experiment disclosed herein were reviewed and approved by the CrownBio IACUC committee. During the experiment, the procedures of the animal experiment were carried out according to the requirements of AAALAC. After tumor inoculation, the effects of tumor growth and treatment on normal animal behavior were routinely monitored, including experimental animal activity, feeding and drinking, weight gain or loss, eye, hair and other abnormalities. Abnormal clinical symptoms observed during the experiment were recorded in the raw data. Mice body weight and tumor size were measured and recorded three times per week during the experiment. The mice were weighed before each administration and administered according to the weight thereof.
Relative tumor growth inhibition rate TGI (%):
T/C % is the relative tumor proliferation rate, that is, the percentage of tumor volume or tumor weight of the treatment group and the control group at a certain time point. T and C are the relative tumor volume (RTV) or tumor weight (TW) of the treatment group and the control group at a specific time point, respectively.
All experimental results were expressed as mean±standard error (x±s), and the significant difference of the tumor volume at 12 days after grouping between the control group and each treatment group was evaluated with one-way ANOVA, and significant difference of the tumor volume between the control group and each treatment group or between each treatment group was evaluated using Games-Howell (heterogeneity of variance), p<0.05 was considered to be significant.

[4] = assay type: in vivo; conditions: 15 mg/kg twice a day

Row | Compound | GI50 [1] [nM] | IC50 (Ba/F3 parent cells) [nM] | Vz—pred ([2]; PO 20 mg/kg single dose) [L/kg] | AUC(0-t) ([2]; IV 2 mg/kg single dose) [ng·h/mL] | Vd ([2]; IV 2 mg/kg single dose) [L/kg] | AUC(0-t) ([2]; PO 20 mg/kg single dose) [ng·h/mL] | Cmax ([2]; PO 20 mg/kg single dose) [ng/mL] | F [2] [%] | also measured
1 | O=C(Nc1ccc(OC(F)(F)Cl)cc1)c1cnc(N2CC[C@@H](O)C2)c(-c2ccnnc2)c1 [Example 3, (R)-6-(3-hydroxypyrrolidin-1-yl)-5-(pyridazine-4-yl)-N-(4-(chlorodifluoromethoxy)phenyl)nicotinamide] | 500 to 1000 | > 1000 | – | – | – | – | – | – | –
2 | O=C(Nc1ccc(OC(F)(F)Cl)cc1)c1cnc(N2CC[C@@H](O)C2)c(-c2cncnn2)c1 [Example 5, (R)-6-(3-hydroxypyrrolidin-1-yl)-5-(1,2,4-triazin-6-yl)-N-(4-(chlorodifluoromethoxy)phenyl)nicotinamide] | 100 to 500 | > 1000 | – | – | – | – | – | – | –
3 | O=C(Nc1ccc(OC(F)(F)Cl)cc1)c1cnc(N2CC[C@@H](O)C2)c(-c2cnccn2)c1 [Example 1, (R)-6-(3-hydroxypyrrolidin-1-yl)-5-(pyrazin-2-yl)-N-(4-(chlorodifluoromethoxy)phenyl)nicotinamide] | ≤ 100 | > 1000 | 1.68 | 5700 | 0.7 | 38000 | 4330 | 66.68 | Cl—pred ([2]; IV 2 mg/kg single dose): 0.35; Cl—pred ([2]; PO 20 mg/kg single dose): 0.54; Cmax ([2]; IV 2 mg/kg single dose): 4820 ng/mL; MRT inf ([2]; IV 2 mg/kg single dose): 1.37 h; MRT inf ([2]; PO 20 mg/kg single dose): 5.43 h
4 | O=C(Nc1ccc(OC(F)(F)Cl)cc1)c1cnc(N2CC[C@@H](O)C2)c(-c2nccnn2)c1 [Example 6, (R)-6-(3-hydroxypyrrolidin-1-yl)-5-(1,2,4-triazin-3-yl)-N-(4-(chlorodifluoromethoxy)phenyl)nicotinamide] | > 1000 | > 1000 | – | – | – | – | – | – | –
5 | O=C(Nc1ccc(OC(F)(F)Cl)cc1)c1cnc(N2CC[C@@H](O)C2)c(-c2cccnn2)c1 [Example 2, (R)-6-(3-hydroxypyrrolidin-1-yl)-5-(pyridazine-3-yl)-N-(4-(chlorodifluoromethoxy)phenyl)nicotinamide] | 100 to 500 | > 1000 | – | – | – | – | – | – | –
6 | O=C(Nc1ccc(OC(F)(F)Cl)cc1)c1cnc(N2CC[C@@H](O)C2)c(-c2ccn[nH]2)c1 [ABL-001, (R)—N-(4-(chlorodifluoromethoxy)phenyl)-6-(3-hydroxypyrrolidin-1-yl)-5-(1H-pyrazol-5-yl)nicotinamide, reference compound] | – | – | 5.14 | 6900 | 0.54 | 13700 | 1770 | 19.86 | –
7 | Nc1ncc(-c2cc(C(=O)Nc3ccc(OC(F)(F)Cl)cc3)cnc2N2CC[C@@H](O)C2)nn1 [Example 4, (R)-6-(3-hydroxypyrrolidin-1-yl)-5-(3-amino-1,2,4-triazin-6-yl)-N-(4-(chlorodifluoromethoxy)phenyl)nicotinamide] | 100 to 500 | > 1000 | – | – | – | – | – | – | –
8 | O=C(Nc1ccc(OC(F)(F)Cl)cc1)c1cnc(N2CC[C@@H](F)C2)c(-c2cnccn2)c1 [Example 7, (R)-6-(3-fluoropyrrolidin-1-yl)-5-(pyrazin-2-yl)-N-(4-(chlorodifluoromethoxy)phenyl)nicotinamide] | ≤ 100 | > 1000 | 2.52 | 3740 | 0.79 | 23100 | 2370 | 61.95 | Cl—pred ([2]; IV 2 mg/kg single dose): 0.54; Cl—pred ([2]; PO 20 mg/kg single dose): 0.90; Cmax ([2]; IV 2 mg/kg single dose): 4510 ng/mL; MRT inf ([2]; IV 2 mg/kg single dose): 1.14 h; MRT inf ([2]; PO 20 mg/kg single dose): 5.43 h; Tumor volume (x ± S) ([3]; at day 2 after grouping): 175 ± 17 mm^3; Tumor volume (x ± S) ([3]; at day 5 after grouping): 237 ± 27 mm^3; Tumor volume (x ± S) ([3]; at day 8 after grouping): 432 ± 24 mm^3; Tumor volume (x ± S) ([3]; at day 10 after grouping): 590 ± 51 mm^3; Tumor volume (x ± S) ([3]; at day 12 after grouping): 790 ± 64 mm^3; Tumor volume (x ± S) ([3]; at day 15 after grouping): 1145 mm^3 and 1145 ± 116 mm^3; relative tumor growth inhibition rate TGI ([3]; at day 15 after grouping): 53.1%; Tumor volume (x ± S) ([3]; at day 17 after grouping): 1532 ± 129 mm^3; Tumor volume (x ± S) ([3]; at day 19 after grouping): 1761 ± 212 mm^3; Tumor volume (x ± S) ([3]; at day 22 after grouping): 2216 ± 126 mm^3; Tumor volume (x ± S) ([3]; at the day of grouping): 160 ± 11 mm^3; average body weight of the mice increased by ([4]; at day 22 after grouping): 1.3%; decrease in the body weight of mice during the experiment ([4]; during the experiment): no mouse in the Example 7 15 mg/kg group had a decrease in the body weight
